These results are taken from US6723753B2, “Substituted n-benzyl-n-phenyl aminoalcohol compounds useful for inhibiting cholesteryl ester transfer protein activity” (Pharmacia Corporation, priority 2002, dated 2004).

The assay has as its target T1, CETP (Homo sapiens, UniProt P11597).
T1 sequence (P11597 18-493): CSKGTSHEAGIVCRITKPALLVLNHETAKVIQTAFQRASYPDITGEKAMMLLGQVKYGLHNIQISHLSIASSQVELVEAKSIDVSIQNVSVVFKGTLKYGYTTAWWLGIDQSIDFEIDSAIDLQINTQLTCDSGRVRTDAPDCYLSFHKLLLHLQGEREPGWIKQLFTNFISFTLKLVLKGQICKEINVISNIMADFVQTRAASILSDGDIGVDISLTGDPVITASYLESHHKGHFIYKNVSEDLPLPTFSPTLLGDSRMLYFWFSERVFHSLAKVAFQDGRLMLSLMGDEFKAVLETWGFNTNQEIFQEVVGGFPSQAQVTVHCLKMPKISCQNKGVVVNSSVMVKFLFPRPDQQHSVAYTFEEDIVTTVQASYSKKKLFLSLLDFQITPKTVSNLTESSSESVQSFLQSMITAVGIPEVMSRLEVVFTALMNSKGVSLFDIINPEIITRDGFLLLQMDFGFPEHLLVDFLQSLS
In words: Assay of CETP Inhibition using Purified Components (Reconstituted Buffer Assay). The assay is classed as biochemical. More on the design: made in house; host or cells: CHO cells (serum-free conditioned medium). Particulars: Inhibition of CETP activity in reconstituted buffer assay; transfer of [3H]CE from HDL to LDL; read-out: IC50. In a few lines:
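Transfer of radiolabeled cholesteryl ester from HDL to LDL was run for 2 h at 37 °C in pH 7.4 Tris buffer with 1% BSA, using purified CHO-expressed human CETP. Precipitated LDL radioactivity, measured by scintillation after dextran sulfate/MgCl2 precipitation and filtration, yielded the IC50.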
Broadly, the IC50 is the concentration needed to halve the response being measured. As for `OC(CN(Cc1cccc(OC(F)(F)C(F)F)c1)c1cccc(OCc2ccc(OCc3ccccc3)cc2)c1)C(F)(F)F` (centres unmarked) [Example 413], the IC50 is 17000 nM. As for `OC(CN(Cc1cccc(OC(F)(F)C(F)F)c1)c1cccc(OCc2ccc(-c3ccccc3)cc2)c1)C(F)(F)F` (centres unmarked) [Example 414], the IC50 was 4600 nM.

Consider `CCc1ccc(COc2cccc(N(Cc3cccc(OC(F)(F)C(F)F)c3)CC(O)C(F)(F)F)c2)cc1` (centres unmarked) [Example 415], for which the 50% inhibitory concentration (IC50) was 290 nM.

For `OC(CN(Cc1cccc(OC(F)(F)C(F)F)c1)c1cccc(OCc2ccc(C(F)(F)F)cc2)c1)C(F)(F)F` (centres unmarked) [Example 416], the IC50 is 510 nM. For `Cc1c(COc2cccc(N(Cc3cccc(OC(F)(F)C(F)F)c3)CC(O)C(F)(F)F)c2)cccc1[N+](=O)[O-]` (centres unmarked) [Example 417], the IC50 was found to be 17000 nM. For the compound `Cc1ccc(COc2cccc(N(Cc3cccc(OC(F)(F)C(F)F)c3)CC(O)C(F)(F)F)c2)cc1C` (centres unmarked) [Example 419], the concentration for half-maximal inhibition (IC50) turned out to be 190 nM. For `OC(CN(Cc1cccc(OC(F)(F)C(F)F)c1)c1cccc(OCc2cccc(Cl)c2)c1)C(F)(F)F` (centres unmarked) [Example 420], the half-maximal inhibitory concentration (IC50) turned out to be 270 nM. For `OC(CN(Cc1cccc(OC(F)(F)C(F)F)c1)c1cccc(OCc2ccc(Br)cc2)c1)C(F)(F)F` (centres unmarked) [Example 421] the value was 490 nM; for `OC(CN(Cc1cccc(OC(F)(F)C(F)F)c1)c1cccc(OCc2cc(Cl)cc(Cl)c2)c1)C(F)(F)F` (centres unmarked) [Example 422], 920 nM.

With `Cc1cc(C)cc(COc2cccc(N(Cc3cccc(OC(F)(F)C(F)F)c3)CC(O)C(F)(F)F)c2)c1` (centres unmarked) [Example 423], the IC50 worked out at 130 nM.

For `OC(CN(Cc1cccc(OC(F)(F)C(F)F)c1)c1cccc(OCc2ccc(Cl)cc2)c1)C(F)(F)F` (centres unmarked) [Example 424], the half-inhibitory concentration (IC50) came to 780 nM.

As to `Cc1cccc(COc2cccc(N(Cc3cccc(OC(F)(F)C(F)F)c3)CC(O)C(F)(F)F)c2)c1F` (centres unmarked) [Example 425], the IC50 came to 340 nM. For `OC(CN(Cc1cccc(OC(F)(F)C(F)F)c1)c1cccc(OCc2cccc(Oc3ccccc3)c2)c1)C(F)(F)F` (centres unmarked) [Example 426] the value was 2500 nM; for `CC(C)c1ccc(COc2cccc(N(Cc3cccc(OC(F)(F)C(F)F)c3)CC(O)C(F)(F)F)c2)cc1` (centres unmarked) [Example 427], 420 nM. In the case of `OC(CN(Cc1cccc(OC(F)(F)C(F)F)c1)c1cccc(OCc2cccnc2)c1)C(F)(F)F` (centres unmarked) [Example 428], the IC50 came to 6800 nM.

`OC(CN(Cc1cccc(OC(F)(F)C(F)F)c1)c1cccc(OCc2nccn2Cc2ccccc2)c1)C(F)(F)F` (centres unmarked) [Example 430]: the IC50 was > 50000 nM. For `OC(CN(Cc1cccc(OC(F)(F)C(F)F)c1)c1cccc(OCc2csc3ccc(Cl)cc23)c1)C(F)(F)F` (centres unmarked) [Example 431] the value was 12000 nM; for `OC(CN(Cc1cccc(OC(F)(F)C(F)F)c1)c1cccc(OCc2ccncc2)c1)C(F)(F)F` (centres unmarked) [Example 433], 5600 nM. Turning to `Nc1ccc(COc2cccc(N(Cc3cccc(OC(F)(F)C(F)F)c3)CC(O)C(F)(F)F)c2)cc1` (centres unmarked) [Example 434, 3-[[3-[(4-aminophenyl)methoxy]phenyl][[3-(1,1,2,2-tetrafluoro-ethoxy)phenyl]methyl]amino]-1,1,1-trifluoro-2-propanol], the concentration for half-maximal inhibition (IC50) is > 50000 nM. To `Nc1cccc(COc2cccc(N(Cc3cccc(OC(F)(F)C(F)F)c3)CC(O)C(F)(F)F)c2)c1` (centres unmarked) [Example 434B, 3-[[3-[(3-aminophenyl)methoxy]phenyl][[3-(1,1,2,2-tetrafluoro-ethoxy)-phenyl]methyl]amino]-1,1,1-trifluoro-2-propanol] belongs 6400 nM; to `O=C(O)c1cccc(COc2cccc(N(Cc3cccc(OC(F)(F)C(F)F)c3)CC(O)C(F)(F)F)c2)c1` (centres unmarked) [Example 435, 3-[[3-[[[3-(1,1,2,2-tetrafluoroethoxy)phenyl]methyl](3,3,3-trifluoro-2-hydroxypropyl)amino]phenoxy]methyl]benzoic Acid], > 50000 nM; to `CC(C)(C)c1ccc(Oc2cccc(N(Cc3cccc(OC(F)(F)C(F)F)c3)CC(O)C(F)(F)F)c2)cc1` (centres unmarked) [Example 437], 2200 nM.

With `N#Cc1ncccc1Oc1cccc(N(Cc2cccc(OC(F)(F)C(F)F)c2)CC(O)C(F)(F)F)c1` (centres unmarked) [Example 441], the IC50 turned out to be 1200 nM. Turning to `O=C(O)c1cncc(Oc2cccc(N(Cc3cccc(OC(F)(F)C(F)F)c3)CC(O)C(F)(F)F)c2)c1` (centres unmarked) [Example 442], the 50% inhibitory concentration (IC50) worked out at 1100 nM. `OC(CN(Cc1cccc(OC(F)(F)C(F)F)c1)c1cccc(Oc2cc(F)ccn2)c1)C(F)(F)F` (centres unmarked) [Example 443]: the 50% inhibitory concentration (IC50) is > 50000 nM. As to `OC(CN(Cc1cccc(OC(F)(F)C(F)F)c1)c1cccc(Oc2ncccc2C(F)(F)F)c1)C(F)(F)F` (centres unmarked) [Example 444], the IC50 came to 1500 nM.

Turning to `OC(CN(Cc1cccc(OC(F)(F)C(F)F)c1)c1cccc(Oc2ccc(C(F)(F)F)cn2)c1)C(F)(F)F` (centres unmarked) [Example 445], the IC50 was found to be 2800 nM. Regarding `OC(CN(Cc1cccc(OC(F)(F)C(F)F)c1)c1cccc(Oc2ccc(Br)cn2)c1)C(F)(F)F` (centres unmarked) [Example 446], the 50% inhibitory concentration (IC50) worked out at 1200 nM. To `OC(CN(Cc1cccc(OC(F)(F)C(F)F)c1)c1cccc(Oc2cncnc2)c1)C(F)(F)F` (centres unmarked) [Example 449] belongs 3900 nM; to `CCNc1ccc(Oc2cccc(N(Cc3cccc(OC(F)(F)C(F)F)c3)CC(O)C(F)(F)F)c2)cc1` (centres unmarked) [Example 450B, 3-[[3-[4-(ethylamino)phenoxy]phenyl][[3-(1,1,2,2-tetrafluoroethoxy)phenyl]methyl]amino]-1,1,1-trifluoro-2-propanol], 1100 nM.

For `OC(CN(Cc1cccc(OC(F)(F)C(F)F)c1)c1cccc(-c2ccccn2)c1)C(F)(F)F` (centres unmarked) [Example 451, 3-[[3-(2-pyridinyl)phenyl][[3-(1,1,2,2-tetrafluoroethoxy)phenyl]methyl]amino]-1,1,1-trifluoro-2-propanol], the 50% inhibitory concentration (IC50) was determined as 13000 nM. Take `OC(CN(Cc1cccc(OC(F)(F)C(F)F)c1)c1cccc(-c2cccs2)c1)C(F)(F)F` (centres unmarked) [Example 452]: the IC50 came to 2700 nM.

Take `OC(CN(Cc1cccc(OC(F)(F)C(F)F)c1)c1cccc(-c2ccco2)c1)C(F)(F)F` (centres unmarked) [Example 453]: the IC50 amounted to 8000 nM. In the case of `OC(CN(Cc1cccc(OC(F)(F)C(F)F)c1)c1cccc(-c2cccnc2)c1)C(F)(F)F` (centres unmarked) [Example 454], the IC50 came out at 4600 nM. For `Cc1cccnc1-c1cccc(N(Cc2cccc(OC(F)(F)C(F)F)c2)CC(O)C(F)(F)F)c1` (centres unmarked) [Example 455], the IC50 came out at 22000 nM. Turning to `CCOC(=O)c1cccc(N(Cc2cccc(OC(F)(F)C(F)F)c2)CC(O)C(F)(F)F)c1` (centres unmarked) [Example 456B, ethyl 3-[[[3-(1,1,2,2-tetra-fluoroethoxy)phenyl]methyl](3,3,3-trifluoro-2-hydroxypropyl)amino]-benzoate], the IC50 was 1500 nM. Consider `O=C(c1cccc(N(Cc2cccc(OC(F)(F)C(F)F)c2)CC(O)C(F)(F)F)c1)N1CCCCC1` (centres unmarked) [Example 456], for which the IC50 was 9200 nM. For the compound `CC(C)NC(=O)c1cccc(N(Cc2cccc(OC(F)(F)C(F)F)c2)CC(O)C(F)(F)F)c1` (centres unmarked) [Example 457], the IC50 came to 13000 nM. Turning to `CCCCNC(=O)c1cccc(N(Cc2cccc(OC(F)(F)C(F)F)c2)CC(O)C(F)(F)F)c1` (centres unmarked) [Example 458], the IC50 came out at 13000 nM. As for `O=C(NC1CCCCC1)c1cccc(N(Cc2cccc(OC(F)(F)C(F)F)c2)CC(O)C(F)(F)F)c1` (centres unmarked) [Example 459], the half-maximal inhibitory concentration (IC50) stood at 3300 nM. To `CC(C)(C)NC(=O)c1cccc(N(Cc2cccc(OC(F)(F)C(F)F)c2)CC(O)C(F)(F)F)c1` (centres unmarked) [Example 460] belongs 3000 nM.
